Reference: the supplement of paper PMC13380429

Columns and labels:
Settings in all cases: 72 h
HepG2 [1] = test: cell viability relative to DMSO; higher = less toxic
Caco-2 [2] = test: as above
Vero E6 [3] = test: as above
U2OS [4] = test: as above
Calu-3 [5] = test: as above
HepG2 [6] = test: drug sensitivity score (DSS) for viability; higher = more toxic; extreme values may be limits of the assay
Caco-2 [7] = test: as above
Vero E6 [8] = test: as above
U2OS [9] = test: as above
Calu-3 [10] = test: as above
HepG2 [11] = test: relative viability EC50 (midpoint between 100% and the lowest measured viability); higher = less toxic
Caco-2 [12] = test: as above
Vero E6 [13] = test: as above
U2OS [14] = test: as above
Calu-3 [15] = test: as above

Compound	cell viability (HepG2 [1]; 1 nM) [%]	cell viability (HepG2 [1]; 10 nM) [%]	cell viability (HepG2 [1]; 100 nM) [%]	cell viability (HepG2 [1]; 1000 nM) [%]	cell viability (HepG2 [1]; 10000 nM) [%]	cell viability (Caco-2 [2]; 1 nM) [%]	cell viability (Caco-2 [2]; 10 nM) [%]	cell viability (Caco-2 [2]; 100 nM) [%]	cell viability (Caco-2 [2]; 1000 nM) [%]	cell viability (Caco-2 [2]; 10000 nM) [%]	cell viability (Vero E6 [3]; 1 nM) [%]	cell viability (Vero E6 [3]; 10 nM) [%]	cell viability (Vero E6 [3]; 100 nM) [%]	cell viability (Vero E6 [3]; 1000 nM) [%]	cell viability (Vero E6 [3]; 10000 nM) [%]	cell viability (U2OS [4]; 1 nM) [%]	cell viability (U2OS [4]; 10 nM) [%]	cell viability (U2OS [4]; 100 nM) [%]	cell viability (U2OS [4]; 1000 nM) [%]	cell viability (U2OS [4]; 10000 nM) [%]	cell viability (Calu-3 [5]; 1 nM) [%]	cell viability (Calu-3 [5]; 10 nM) [%]	cell viability (Calu-3 [5]; 100 nM) [%]	cell viability (Calu-3 [5]; 1000 nM) [%]	cell viability (Calu-3 [5]; 10000 nM) [%]	drug sensitivity score (HepG2 [6])	drug sensitivity score (Caco-2 [7])	drug sensitivity score (Vero E6 [8])	drug sensitivity score (U2OS [9])	drug sensitivity score (Calu-3 [10])	relative viability EC50 (HepG2 [11]) [µM]	relative viability EC50 (Caco-2 [12]) [µM]	relative viability EC50 (Vero E6 [13]) [µM]	relative viability EC50 (U2OS [14]) [µM]	relative viability EC50 (Calu-3 [15]) [µM]
Cc1cc(C)c2c(c1)[C@@H](N(Cc1cc(C(F)(F)F)cc(C(F)(F)F)c1)c1nnn(C)n1)CCCN2C[C@H]1CC[C@H](C(=O)O)CC1 [evacetrapib]	97	100	95.6	99.5	104	90.6	94.9	108	99.8	97.3	96.1	97.3	95.7	93.3	102	98.1	100	97.5	103	91.9	97	88.9	100	96.9	89.9	0	0	0	0	0	> 10	> 10	> 10	> 10	> 10
CCOC(=O)C1=C(C)NC(C)=C(C(=O)OC)C1c1cccc(Cl)c1Cl (stereo not given) [felodipine]	105	107	99.5	99.2	96.9	101	102	104	91.8	99	99.2	103	101	103	94.7	106	96.7	99.7	97.4	100	89.8	101	111	98.2	102	0	0	0	0	0	> 10	> 10	> 10	> 10	> 10
O=C1NCC2(CCN(CCc3ccccc3)CC2)O1 [fenspiride]	96.7	107	100	112	103	99	103	91.2	101	104	94.9	98.3	97.9	103	103	105	97.7	101	99.2	108	96.6	92.5	85	92.3	98.9	0	0	0	0	0	> 10	> 10	> 10	> 10	> 10
CC1(C)OC(=O)C(OCC2CC2)=C1c1ccc(S(C)(=O)=O)cc1 [firocoxib]	105	97.7	104	103	101	98.3	91.8	84.1	83.4	86.5	100	101	99.2	96.4	98.2	96.7	107	95.3	97.2	102	95.9	93.2	95.6	110	104	0	3.5	0	0	0	> 10	> 10	> 10	> 10	> 10
O=C1NC(c2ccccc2)(c2ccccc2)C(=O)N1COP(=O)(O)O [fosphenytoin]	97.1	92.7	100	109	91.4	97.6	102	86.3	104	105	110	84.9	102	106	94.6	98	98.5	101	95.1	102	89.4	97.3	90.4	87.7	102	0	0	0	0	0	> 10	> 10	> 10	> 10	> 10
O=C1OC(CN2CCOCC2)CN1/N=C/c1ccc([N+](=O)[O-])o1 (stereo not given) [furaltadone]	96.4	93.3	92.8	81.7	82.5	96.5	87	79.7	99.8	82.3	108	94	103	109	102	99.8	99.3	95.4	106	95.1	95.7	93.6	94.4	103	104	2.1	0	0	0	0	> 10	> 10	> 10	> 10	> 10
CC(=O)[C@H]1CC[C@H]2[C@@H]3CC[C@H]4C[C@](C)(O)CC[C@]4(C)[C@H]3CC[C@]12C [ganaxolone]	93.4	108	94.2	102	101	95	98.7	98.2	98.7	101	89.8	103	91.2	95.7	106	98.8	99.4	101	100	100	96.7	94	98.5	98.4	102	0	0	0	0	0	> 10	> 10	> 10	> 10	> 10
NCC(=O)N[C@@H](CCC(N)=O)C(=O)O [gly-gln]	86.6	100	91.7	106	104	95.5	92.6	92.9	102	97.7	91.8	101	91.7	94.2	107	99.2	95.4	96.7	98.3	97.1	95.9	91.9	92.7	99.2	109	0	0	0	0	0	> 10	> 10	> 10	> 10	> 10
COc1ccc([C@@H]2CC(=O)c3c(O)cc(O[C@@H]4O[C@H](CO[C@@H]5O[C@@H](C)[C@H](O)[C@@H](O)[C@H]5O)[C@@H](O)[C@H](O)[C@H]4O)cc3O2)cc1O [hesperidin]	99	109	99.1	103	83.7	98.3	103	97.5	88.1	98.9	103	102	99	98.5	99.8	97.5	97.9	102	99.7	104	89.1	86.3	91.6	97.9	101	0.2	0	0	0	0	> 10	> 10	> 10	> 10	> 10
CCCCCCc1ccc(O)cc1O [hexylresorcinol]	105	98.7	107	93.7	94	95.9	98.5	98.4	100	94.9	102	101	106	103	96.7	98.3	101	97.5	104	99.9	91	109	104	97.8	99.7	0	0	0	0	0	> 10	> 10	> 10	> 10	> 10
CC(=O)OCC(=O)[C@@]1(O)CC[C@H]2[C@@H]3CCC4=CC(=O)CC[C@]4(C)[C@H]3[C@@H](O)C[C@@]21C [hydrocortisone-acetate]	101	105	105	99.5	103	92.6	94.4	106	97.6	107	95.7	99.4	96.2	95.4	101	94.6	97	93	97.7	98.6	93.8	102	97.9	96.8	89.2	0	0	0	0	0	> 10	> 10	> 10	> 10	> 10
O=c1[nH]cnc2nc[nH]c12 [hypoxanthine]	100	102	97.7	95.5	94	101	87	102	103	112	105	105	102	104	96.5	98	97.8	102	102	113	98.1	90.3	102	95.4	102	0	0	0	0	0	> 10	> 10	> 10	> 10	> 10
OC[C@H]1O[C@@H](c2ccc(F)c(Cc3cc4ccccc4s3)c2)[C@H](O)[C@@H](O)[C@@H]1O [ipragliflozin-L-proline]	108	101	105	96.3	111	108	99.8	100	101	100	110	104	105	99.4	103	99.2	98.7	99.4	104	99	92.4	108	98	110	100	0	0	0	0	0	> 10	> 10	> 10	> 10	> 10
CC(=O)OCC(=O)[C@@]1(O)CC[C@H]2[C@@H]3CCC4=CC(=O)C=C[C@]4(C)[C@@]3(F)[C@@H](O)C[C@@]21C [isoflupredone-acetate]	102	92.3	102	99.2	104	104	96.9	97	103	102	100	101	96	94.5	107	96.4	98.2	94.5	99.4	105	92.6	97.2	82.4	93.2	107	0	0	0	0	0	> 10	> 10	> 10	> 10	> 10
